Measured values: PubChem BioAssay AID449732 (Southern Research Specialized Biocontainment Screening …, 2010)

tested on: RSV titer reduction in cells, log virus titer; experiment: antiviral activity against RSV, titer decrease, cell-based, titer reduction, selected compounds (AID 449732); details: stronger effect = higher value

| SMILES | max log titer decrease |
| --- | --- |
| c1ccc(-c2nn3c(Cn4cnc5ccccc54)nnc3s2)cc1 | 8.58 |
| COc1cccc(C(=O)N(Cc2nc(-c3cccc(C)c3)no2)C(C)C)c1OC | 8.03 |
| c1ccc(N2CCN(Cc3nc4ccccc4[nH]3)CC2)nc1 | 4.6 |
| Cc1c(NC(=O)COC(=O)c2cc(-c3ccc(-c4ccccc4)cc3)nc3ccccc23)c(=O)n(-c2ccccc2)n1C | 8.6 |
| Cc1nc2ccccc2nc1Nc1cccc(Cl)c1 | 8.03 |
| O=C(O)C1CC=CCC1C(=O)Nc1ccc(S(=O)(=O)N2CCCc3ccccc32)cc1 (stereo unspecified) | 8.58 |
| CC(C)(C)C(=O)Nc1sc(-c2ccccc2)cc1C(=O)O | 5.66 |
| CCN(c1ccccc1)S(=O)(=O)c1ccc(Cl)c(NC(=O)CSc2n[nH]c(N)n2)c1 | 8.6 |
| CCOC(=O)c1ccc2[nH]c3c(c2c1)CN(C)CC3 | 9.13 |
| Cc1cccc(NC(=O)CSc2nc3ccccc3nc2N2CCCCC2)c1 | 9.13 |
| Cc1cccc(-n2c(SCC(=O)Nc3ncc(Cl)cc3Cl)nc3ccccc32)c1 | 8.6 |
| CN(C)C(=O)COC(=O)c1ccccc1Nc1ccc(SC(F)F)cc1 | 8.6 |
| COC(=O)c1ccc(NC2c3ncccc3C(=O)N2Cc2cccs2)cc1 (stereo unspecified) | 5.08 |
| O=C(NCc1ccco1)c1ccc(Cn2c(=O)c3ccccc3n(Cc3ccc(Cl)cc3)c2=O)cc1 | 8.58 |
| CCOc1ccc(CNC(=O)c2cc3oc4ccccc4c3n2C)cc1 | 8.58 |
| COc1ccc(N(CC(=O)NC2CCCCC2)C(=O)c2ccc(C)s2)c(OC)c1 | 5.13 |
| O=C(CCCOc1ccc(Cl)cc1Cl)Nc1ccccc1C(=O)O | 8.03 |
| COc1ccc(C(=O)Nc2nc3c(s2)CCCC3)cc1S(=O)(=O)N1CCCc2ccccc21 | 8.6 |
| O=S(=O)(c1cccc(-c2csc(-c3ccccc3)n2)c1)N1CCOCC1 | 8.58 |
| O=C(NC(=S)Nc1ccccc1C(=O)O)c1ccc(-c2ccc(Br)cc2)o1 | 8.03 |
| O=C(CCNC(=O)c1ccc(Cl)cc1)NC1CCCc2ccccc21 (stereo unspecified) | 8.6 |
| CSc1ncccc1C(=O)Nc1nc(C(C)(C)C)cs1 | 5.6 |
| Cn1c(C(=O)NCc2ccccc2)cc2oc3ccccc3c21 | 8.58 |
| O=C(CCNC(=O)c1ccc(Br)cc1)NC1CCCc2ccccc21 (stereo unspecified) | 8.6 |
| CCc1nc(SCC(=O)N2c3ccccc3CC2C)c2c(C)c(C)sc2n1 (stereo unspecified) | 9.13 |
| O=C(c1cc2nc(-c3ccccc3)cc(-c3ccccc3)n2n1)N1CCC2(CC1)OCCO2 | 8.03 |

| SMILES | max log titer decrease |
| --- | --- |
| Cc1ccc(NC(=O)C2CCCN2S(=O)(=O)c2cccc3cccnc23)c(C)c1 (stereo unspecified) | 8.58 |
| COc1ccccc1NCC(=O)Nc1cc(S(=O)(=O)N2CCOCC2)ccc1N1CCOCC1 | 4.6 |
| COCCCNC(=O)c1ccc(Cn2c(=O)c3ccccc3n(Cc3ccc(C)cc3)c2=O)cc1 | 8.58 |
| COc1cccc(CNC(=O)c2cc3oc4ccccc4c3n2C)c1OC | 8.58 |
| CCOC(=O)C1=C(NC(=S)NC(=O)c2ccccc2)c2ccccc2CC1C(C)C (stereo unspecified) | 9.13 |
| O=[N+]([O-])c1ccccc1S(=O)(=O)Nc1cccc(-c2ccc(N3CCCC3)nn2)c1 | 9.13 |
| CSc1nnc(Cn2c(=O)sc3ccccc32)n1-c1cccc(Cl)c1 | 5.47 |
| C#CCn1c(S(=O)(=O)Cc2ccc(F)cc2)nc(-c2ccccc2)c1-c1ccccc1 | 3.37 |
| O=C(O)c1cccnc1Nc1ccc(Cl)cc1 | 9.13 |
| Cc1sc2nc(C3CC3)nc(SCC(=O)N3c4ccccc4CC3C)c2c1C (stereo unspecified) | 9.13 |
| Cc1ccc(-c2nc3cccnc3s2)cc1NS(=O)(=O)c1cccs1 | 9.13 |
| Cc1ccc(-n2c(SCC(=O)Nc3ncc(Cl)cc3Cl)nc3ccccc32)cc1 | 8.6 |
| Cc1ccc(CSCC(=O)Nc2ccccc2C(=O)O)cc1 | 8.03 |
| c1csc(-c2nn3c(Cn4cnc5ccccc54)nnc3s2)c1 | 5.14 |
| O=C(Nc1ccc(N2CCCCC2)c(Cl)c1)c1cccnc1 | 9.13 |
| CC1Cc2ccccc2N1S(=O)(=O)c1cccc(C(=O)N2CCN(c3ncccn3)CC2)c1 (stereo unspecified) | 8.6 |
| CCCC(c1nnnn1CC(=O)OCC)N(Cc1cc2c(C)cc(C)cc2[nH]c1=O)C1CCCC1 (stereo unspecified) | 9.13 |
| CCOC(=O)c1c(-c2cccc(C)c2)csc1NC(=O)c1c(-c2ccccc2)noc1C | 8.03 |
| COc1ccc(C(c2c(NC(=O)c3ccco3)sc(C)c2C)N2CCOCC2)cc1OC (stereo unspecified) | 8.58 |
| CCOC(=O)c1ccc(NC(=S)N2CCSC2c2ccc(Br)cc2)cc1 (stereo unspecified) | 8.03 |
| COC(=O)C1=C(C)N(Cc2ccccc2)C(=O)NC1c1ccccc1 (stereo unspecified) | 9.13 |
| Cc1ccc(OCCn2c(C3CC(=O)N(Cc4ccccc4)C3)nc3ccccc32)cc1 (stereo unspecified) | 8.6 |
| COc1ccccc1CNC(=O)C1CCN(S(=O)(=O)c2cccc3nonc23)CC1 | 8.58 |
| Cc1ccc2c(c1)cc(C(=O)NCc1ccccc1)n2C | 8.03 |
| CCOc1ccc2nc(NC(=O)C(CCSC)NS(=O)(=O)c3cccs3)sc2c1 (stereo unspecified) | 8.58 |
